Earlier results as cited in patent publication US7006921B1, “Method for accurately estimating pKa of molecules using atom type definitions and partial least squares” (priority 1999, dated 2006).

Settings: first or only pKa
In the case of `O=C(O)c1cnn[nH]1` [1,2,3-triazole-4-carboxylic acid, 1,2,3-triazole-4-carboxylic acid], the “Measured (pKa)” value is given as 3.22. In the case of `NCCSCCSCCN` [1,8-diamino-3,6-dithiaoctane, 1,8-diamino-3,6-dithiaoctane], the “Measured (pKa)” value is given as 9.47. In the case of `CC(C)NCC(O)C1CCC(O)CC1` (stereo not shown) [1-(4′-hydroxycyclohexyl)-2-(isopropylamino)-ethanol], the “Measured (pKa)” value is listed as 10.23. For `CC(=O)OCCN(C)C` [2-(dimethylamino)-ethyl acetate, 2-(dimethylamino)-ethyl acetate], the “Measured (pKa)” value is given as 8.35. In the case of `CNCC(N)=O` [2-(methylamino)-acetamide, 2-(methylamino)-acetamide], the “Measured (pKa)” value is given as 8.31. In the case of `CC(=O)C(CC(=O)O)C(=O)O` (stereo not shown) [2-acetylbutanedioic acid, 2-acetylbutanedioic acid], the “Measured (pKa)” value is listed as 2.86. For `NC1CCCCCC1O` (stereo not shown) [2-aminocycloheptanol], the “Measured (pKa)” value is listed as 9.25. For `CC(=O)c1cccnc1` [3-acetylpyridine], the “Measured (pKa)” value is given as 3.26. In the case of `COc1cncc(Br)c1` [3-bromo-5-methoxypyridine, 3-bromo-5-methoxypyridine], the “Measured (pKa)” value is given as 2.60. For `Oc1cccnc1` [3-hydroxypyridine], the “Measured (pKa)” value is listed as 4.80. In the case of `Nc1cc(Cl)ncn1` [4-amino-6-chloropyrimidine, 4-amino-6-chloropyrimidine], the “Measured (pKa)” value is listed as 2.10. For `Nc1ccnnc1` [4-aminopyridazine], the “Measured (pKa)” value is given as 6.65. In the case of `O=C(O)c1ccc(Br)cc1C(=O)O` [4-bromo-1,2-benzenedicarboxylic acid, 4-bromo-1,2-benzenedicarboxylic acid], the “Measured (pKa)” value is listed as 2.5. In the case of `Nc1ccc(Br)c([N+](=O)[O-])c1` [4-bromo-3-nitroaniline, 4-bromo-3-nitroaniline], the “Measured (pKa)” value is listed as 1.80. For `O=C(O)c1cc(Br)c[nH]1` [4-bromopyrrol-2-carboxylic acid, 4-bromopyrrol-2-carboxylic acid], the “Measured (pKa)” value is listed as 4.06. For `Cc1cc(O)cc(C)c1Cl` [4-chloro-3,5-dimethylphenol, 4-chloro-3,5-dimethylphenol], the “Measured (pKa)” value is given as 9.71. For `COc1cc(C(=O)O)cc(OC)c1O` [4-hydroxy-3,5-dimethoxybenzoic acid, 4-hydroxy-3,5-dimethoxybenzoic acid], the “Measured (pKa)” value is given as 4.34. In the case of `NCCNCCO` [5-amino-3-azapentanol, 5-amino-3-azapentanol], the “Measured (pKa)” value is listed as 9.82. In the case of `Oc1c(O)c(O)c(O)c(O)c1O` [Benzenehexol], the “Measured (pKa)” value is given as 9.0. For `O=C(O)c1coc(C(=O)O)c1` [Furan-2,4-dicarboxylic acid, Furan-2,4-dicarboxylic acid], the “Measured (pKa)” value is given as 2.63. For `C1N2CN3CN1CN(C2)C3` [Hexamethylenetetramine], the “Measured (pKa)” value is listed as 6.2. In the case of `CSCC[C@H](N)C(=O)O` [Methionine], the “Measured (pKa)” value is given as 2.17. For `CC#CCN(C)C` [N,N-dimethyl-2-butyn-1-amine, N,N-dimethyl-2-butyn-1-amine], the “Measured (pKa)” value is given as 8.28. In the case of `O=C(O)c1cc[nH]n1` [Pyrazole-3-carboxlylic acid, Pyrazole-3-carboxlylic acid], the “Measured (pKa)” value is listed as 3.74. In the case of `Oc1cccc(O)c1O` [Pyrogallol], the “Measured (pKa)” value is given as 9.12. In the case of `c1c[nH]cn1` [imidazole], the “Measured (pKa)” value is listed as 6.04.

Same assay, conditions: second value of the cell, pKa2
In the case of `Oc1cccnc1` [3-hydroxypyridine], the “Measured (pKa2)” value is given as 8.74. For `CSCC[C@H](N)C(=O)O` [Methionine], the “Measured (pKa2)” value is listed as 9.20.
